Measurements taken from patent publication US11104648B2, “Pyrazole derivative” (Zhejiang Research Institute of Chemical Industry Co., Ltd., priority 2018, dated 2021).
Where two headings read alike, the source gives them in different places.

Key:
Format in all cases: in vivo
[1] = test system: Eggs of Tetranychus Cinnabarinus; test: Activity assay of eggs of Tetranychus cinnabarinus (spray method, ovicidal); details: Tetranychus cinnabarinus; for pest or weed control at 2 µg/mL: concentration 2 mg/L; for pest or weed control at 5 µg/mL: concentration 5 mg/L, non-incubated eggs counted as dead
Procedure, shortened: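 Female mites laid eggs on broad bean leaves for 24 h, adults removed, eggs sprayed with compound in DMF (≤10%)/1‰ Tween 80. Held at 26±2° C, 70–80% humidity, 16 h light; unhatched eggs counted dead once blank control hatched. Three replicates.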

[2] = test system: adult Tetranychus cinnabarinus; test: Activity assay of adult Tetranychus cinnabarinus (whole-plant spray on bean seedlings); details: 48 h; for pest or weed control at 1.25 µg/mL: concentration 1.25 mg/L; for pest or weed control at 2.5 µg/mL: concentration 2.5 mg/L
Procedure, shortened: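 Bean seedlings at two-true-leaf stage, infested with adult mites and base count taken, sprayed whole-plant with compound in DMF (≤10%) diluted in 1‰ Tween 80. Three replicates per treatment kept in standard observation room. Surviving mites counted at 48 h to give death rate.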

[3] = test system: Tetranychus cinnabarinus Nymphs; test: Activity assay of Tetranychus cinnabarinus nymphs (spray on broad bean leaves); details: 48 h; for pest or weed control at 2 µg/mL: concentration 2 mg/L; for pest or weed control at 2 µg/mL / pest or weed control at 2.5 µg/mL: read-out: nymph-killing activity; for pest or weed control at 2.5 µg/mL: concentration 2.5 mg/L; for pest or weed control at 0.5 µg/mL: nymphs, concentration 0.5 mg/L, parallel determination, read-out: Death rate (%)
Procedure, shortened: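 Compound in DMF (≤10%) diluted in 1‰ Tween 80 water was sprayed onto broad bean leaves carrying nymphs hatched from eggs laid by female adults over 24 h. Kept at 26±2° C., 70%–80% humidity, 16 h light; mortality (no response to touch) assessed after 48 h, three replicates with blank control.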

[4] = spray, read-out: ovicidal activity
[5] = read-out: adult mite-killing activity
[6] = eggs, parallel determination, read-out: Death rate (%)
[7] = adult mites, parallel determination, read-out: Death rate (%)

| Compound | pest or weed control at 2 µg/mL [1, 4] [%] | pest or weed control at 5 µg/mL [1, 4] [%] | pest or weed control at 1.25 µg/mL [2, 5] [%] | pest or weed control at 2.5 µg/mL [2, 5] [%] | pest or weed control at 2 µg/mL [3] [%] | pest or weed control at 2.5 µg/mL [3] [%] | pest or weed control at 2 µg/mL [1, 6] [%] | pest or weed control at 1.25 µg/mL [2, 7] [%] | pest or weed control at 0.5 µg/mL [3] [%] |
| --- | --- | --- | --- | --- | --- | --- | --- | --- | --- |
| CCOC(=O)OC(C)O/C(=C(/C#N)c1ccc(C(C)(C)C)cc1)c1cc(C)nn1CC (centres unmarked) [Compound 580] | ≥ 90 | ≥ 90 | ≥ 90 | ≥ 90 | ≥ 90 | ≥ 95 |  |  |  |
| CCn1nc(C)cc1/C(OC(C)OC(=O)OC(C)C)=C(\C#N)c1ccc(C(C)(C)C)cc1 (centres unmarked) [Compound 582] |  | ≥ 90 |  | ≥ 90 |  | ≥ 95 |  |  |  |
| CCCCOC(=O)OC(C)O/C(=C(/C#N)c1ccc(C(C)(C)C)cc1)c1cc(C)nn1CC (centres unmarked) [Compound 584] |  | ≥ 90 |  | ≥ 90 |  | ≥ 95 |  |  |  |
| CCn1nc(C)cc1/C(OC(C)OC(=O)OCC(C)C)=C(\C#N)c1ccc(C(C)(C)C)cc1 (centres unmarked) [Compound 585] | ≥ 90 | ≥ 90 | ≥ 90 | ≥ 90 | ≥ 90 | ≥ 95 | 100 | 100 | 96 |
| CCn1nc(C)cc1/C(OC(C)OC(=O)OCCC(C)C)=C(\C#N)c1ccc(C(C)(C)C)cc1 (centres unmarked) [Compound 586] |  | ≥ 90 |  | ≥ 90 |  | ≥ 95 |  |  |  |
| CCCCCOC(=O)OC(C)O/C(=C(/C#N)c1ccc(C(C)(C)C)cc1)c1cc(C)nn1CC (centres unmarked) [Compound 588] |  | ≥ 90 |  | ≥ 90 |  | ≥ 95 |  |  |  |
| CCn1nc(C)cc1/C(OC(C)OC(=O)OCCCl)=C(\C#N)c1ccc(C(C)(C)C)cc1 (centres unmarked) [Compound 590] |  | ≥ 90 |  | ≥ 90 |  | ≥ 95 |  |  |  |
| CCn1nc(C)cc1/C(OC(C)OC(=O)OCC(F)(F)F)=C(\C#N)c1ccc(C(C)(C)C)cc1 (centres unmarked) [Compound 595] |  | ≥ 90 |  | ≥ 90 |  | ≥ 95 |  |  |  |
| CCn1nc(C)cc1/C(OC(C)OC(=O)OCCOC)=C(\C#N)c1ccc(C(C)(C)C)cc1 (centres unmarked) [Compound 596] |  | ≥ 90 |  | ≥ 90 |  | ≥ 95 |  |  |  |
| CCn1nc(C)cc1/C(OC(C)OC(=O)OCCSC)=C(\C#N)c1ccc(C(C)(C)C)cc1 (centres unmarked) [Compound 599] |  | ≥ 90 |  | ≥ 90 |  | ≥ 95 |  |  |  |
| C=CCOC(=O)OC(C)O/C(=C(/C#N)c1ccc(C(C)(C)C)cc1)c1cc(C)nn1CC (centres unmarked) [Compound 602] | ≥ 90 | ≥ 90 | ≥ 90 | ≥ 90 | ≥ 90 | ≥ 95 |  |  |  |
| C#CCOC(=O)OC(C)O/C(=C(/C#N)c1ccc(C(C)(C)C)cc1)c1cc(C)nn1CC (centres unmarked) [Compound 604] |  | ≥ 90 |  | ≥ 90 |  | ≥ 95 |  |  |  |
| CCSC(=O)OC(C)O/C(=C(/C#N)c1ccc(C(C)(C)C)cc1)c1cc(C)nn1CC (centres unmarked) [Compound 608] |  | ≥ 90 |  | ≥ 90 |  | ≥ 95 |  |  |  |
| CCn1nc(C)c(Cl)c1/C(OCOC(=O)OC)=C(\C#N)c1ccc(C(C)(C)C)cc1 [Compound 739] |  | ≥ 90 |  | ≥ 90 |  | ≥ 95 |  |  |  |
| CCn1nc(C)c(Cl)c1/C(OC(C)OC(=O)OC)=C(\C#N)c1ccc(C(C)(C)C)cc1 (centres unmarked) [Compound 771] | ≥ 90 | ≥ 90 | ≥ 90 | ≥ 90 | ≥ 90 | ≥ 95 | 100 | 100 | 95 |
| CCOC(=O)OC(C)O/C(=C(/C#N)c1ccc(C(C)(C)C)cc1)c1c(Cl)c(C)nn1CC (centres unmarked) [Compound 772] | ≥ 90 | ≥ 90 | ≥ 90 | ≥ 90 | ≥ 90 | ≥ 95 | 100 | 100 | 90 |
| CCCCCOC(=O)OC(C)O/C(=C(/C#N)c1ccc(C(C)(C)C)cc1)c1c(Cl)c(C)nn1CC (centres unmarked) [Compound 780] | ≥ 90 | ≥ 90 | ≥ 90 | ≥ 90 | ≥ 90 | ≥ 95 |  |  |  |
| CCn1nc(C)c(C)c1/C(OCOC(=O)OC)=C(\C#N)c1ccc(C(C)(C)C)cc1 [Compound 931] | ≥ 90 | ≥ 90 | ≥ 90 | ≥ 90 | ≥ 90 | ≥ 95 | 98 | 95 | 95 |
| CCOC(=O)OCO/C(=C(/C#N)c1ccc(C(C)(C)C)cc1)c1c(C)c(C)nn1CC [Compound 932] | ≥ 90 | ≥ 90 | ≥ 90 | ≥ 90 | ≥ 90 | ≥ 95 | 97 | 90 |  |
| CCCOC(=O)OCO/C(=C(/C#N)c1ccc(C(C)(C)C)cc1)c1c(C)c(C)nn1CC [Compound 933] | ≥ 90 | ≥ 90 | ≥ 90 | ≥ 90 | ≥ 90 | ≥ 95 |  |  |  |
| CCn1nc(C)c(C)c1/C(OCOC(=O)OCC(C)C)=C(\C#N)c1ccc(C(C)(C)C)cc1 [Compound 937] | ≥ 90 | ≥ 90 | ≥ 90 | ≥ 90 | ≥ 90 | ≥ 95 | 100 | 100 | 90 |
| CCCCCOC(=O)OCO/C(=C(/C#N)c1ccc(C(C)(C)C)cc1)c1c(C)c(C)nn1CC [Compound 940] | ≥ 90 | ≥ 90 | ≥ 90 | ≥ 90 | ≥ 90 | ≥ 95 |  |  |  |
| CCn1nc(C)c(C)c1/C(OC(C)OC(=O)OC)=C(\C#N)c1ccc(C(C)(C)C)cc1 (centres unmarked) [Compound 963] | ≥ 90 | ≥ 90 | ≥ 90 | ≥ 90 | ≥ 90 | ≥ 95 |  |  |  |
| CCn1nc(C)c(C)c1/C(OC(C)OC(=O)OCC(C)C)=C(\C#N)c1ccc(C(C)(C)C)cc1 (centres unmarked) [Compound 969] | ≥ 90 | ≥ 90 | ≥ 90 | ≥ 90 | ≥ 90 | ≥ 95 |  |  |  |
